Values of other authors in publication PMC9290462 (British Journal of Clinical Pharmacology, 2020).

How the values were obtained:
[1] = system: patients with moderate‐to‐severe SLE
[2] = system: healthy volunteers

| alanine aminotransferase, aspartate aminotransferase and lipase | bleeding events [2] | Compound | primary efficacy endpoint [1] | tolerability [2] |
| --- | --- | --- | --- | --- |
| associated with increases |  | Cc1c(-c2c(F)cc(C(N)=O)c3[nH]c4c(c23)CC[C@H](C(C)(C)O)C4)cccc1-n1c(=O)c2cccc(F)c2n(C)c1=O [BMS‐986142] |  |  |
| associated with increases |  | C=CC(=O)N1CCC(CNc2ncnc(N)c2-c2ccc(Oc3ccccc3)cc2)CC1 [Evobrutinib, evobrutinib] |  |  |
|  | no reported bleeding events | C[C@H]1CN(C2COC2)CCN1c1ccc(Nc2cc(-c3ccnc(N4CCn5c(cc6c5CC(C)(C)C6)C4=O)c3CO)cn(C)c2=O)nc1 [fenebrutinib] | failed to meet its primary efficacy endpoint | well tolerated |
